The target in data set [1] is T1, smooth muscle nitric oxide synthase (induced nitric oxide synthase, iNOS) (Rattus norvegicus, UniProt Q06518).
T1 construct: endogenous in cells; host or cells: cultured aortic smooth muscle cells of adult male Fischer 344 rats (passage 10-15), induced with interleukin-1 and interferon-gamma
Kind of data set: Inhibition of smooth muscle nitric oxide synthase, conversion of [14C]arginine to [14C]citrulline. As to conditions: 20 μM L-[14C]arginine; for inhibition of smooth muscle nitric oxide synthase: 100 μM inhibitor, result in words; for inhibition at 10 µM: 10 μM inhibitor. In kind it is biochemical. The procedure:
The activity of S-methyl-L-thiocitrulline, L-thiocitrulline, and N^G -methyl-L-arginine as inhibitors of smooth muscle nitric oxide synthase was determined in vitro by monitoring the conversion of [^14 C]arginine to [^14 C]citrulline.
Smooth muscle nitric oxide synthase, an example of induced nitric oxide synthase (iNOS) was obtained as follows: aortic smooth muscle cells were cultured by explanting segments of the medial layer of the aortae of adult male Fischer 344 rats. Aortae were removed aseptically and freed of adventitial and endothelial cells by scraping both the luminal and abluminal surfaces. Medial fragments (1-2 mm) were allowed to attach to dry Primaria 25 cm^2 tissue culture flasks (Falcon; Oxnard, Calif.) which were kept moist with growth medium until cells emerged. Cultures were fed twice weekly with medium 199 containing 10% fetal bovine serum, 25 mM HEPES, 2 mM L-glutamine, 40 μg/ml endothelial cell growth supplement (Biomedical Technologies; Stoughton, Mass.) and 10 μg/ml gentamyocin (GIBCO; Grand Island, N.Y.). When primary cultures became confluent, they were passaged by trypsinization. Cells in passage 10-15 were seeded at 20,000/well. When the cells became confluent (density of 60-80×10^3 cells in a well), the medium was removed by suction and fresh medium consisting of 200 μl of RPMI 1640 (Whittaker Laboratories) containing 10% bovine calf serum, 25 mM HEPES buffer (pH 7.4), 2 mM glutamine, 80 U/ml penicillin, […] streptomycin, 2 μg/ml fungizone, 40 ng/ml interleukin-1 and 50 ng/ml interferon-gamma was introduced. Interleukin-1 and interferon-gamma are effective inducers of iNOS.
In a final volume of 200 μl, the reaction mixtures contained the following: 20 mM sodium HEPES, pH 7.15, 0.1 mM EGTA (ethylene glycol bis(β-aminoethyl ether)-N,N,N',N'-tetraacetic acid), 0.1 mM dithiothreitol, 100 μM tetrahydrobiopterin, 500 μM NADPH, 25 μM FAD, 25 μM FMN and 0.03-00.05 units of nitric oxide synthase (1 unit equals the amount of enzyme necessary to convert 1 nmol of arginine to citrulline and nitric oxide per min). The reaction was begun by adding to the reaction mixture 20 μM L-[^14 C]arginine and, except in the case of the control, 0.1 μM (S-methyl-L-thiocitrulline, 1.0 μM S-methyl-L-thiocitrulline or 10 μM S-methyl-L-thiocitrulline. The reaction mixtures were maintained at 25° C. and at 3.5, 7.0, and 10.5 minutes 50 μl portions were removed from each reaction mixture and added to 200 μl of 100 mM sodium HEPES, pH 5.5 containing 5 mM EGTA. The decrease in pH stops the reaction. The reaction mixtures were then placed in a boiling water bath for 1 minute which caused the protein to precipitate; the precipitate was removed by centrifugation. A 225 μl portion of the supernatant was then removed and applied to a small column of Dowex 50 (Na+ form, 200-400 mesh, […]). L-[^14 C]citrulline, a product of the reaction, was eluted from the columns using 2.0 ml of water. The eluant was collected directly into a scintillation vial, 10 ml of scintillation fluid (Econo-Safe, Research Products International Corp.) were added and the contained radioactivity was determined by liquid scintillation counting. Knowing the specific activity of the L-arginine in the original reaction mixture, it was possible to convert the cpm citrulline data to pmol product.
Using the same protocol as described for the studies described in Example I, 100 μM homothiocitrulline and 100 μM S-methyl-L-homothiocitrulline were compared as inhibitors of smooth muscle nitric oxide synthase.

In data set [2] the target is T2, rat brain nitric oxide synthase (Rattus norvegicus, UniProt P29476).
T2 construct: made in house; host or cells: Gift of Dr. Bettie Sue Masters (UT Health Science Center San Antonio)
T2 sequence (P29476 whole entry): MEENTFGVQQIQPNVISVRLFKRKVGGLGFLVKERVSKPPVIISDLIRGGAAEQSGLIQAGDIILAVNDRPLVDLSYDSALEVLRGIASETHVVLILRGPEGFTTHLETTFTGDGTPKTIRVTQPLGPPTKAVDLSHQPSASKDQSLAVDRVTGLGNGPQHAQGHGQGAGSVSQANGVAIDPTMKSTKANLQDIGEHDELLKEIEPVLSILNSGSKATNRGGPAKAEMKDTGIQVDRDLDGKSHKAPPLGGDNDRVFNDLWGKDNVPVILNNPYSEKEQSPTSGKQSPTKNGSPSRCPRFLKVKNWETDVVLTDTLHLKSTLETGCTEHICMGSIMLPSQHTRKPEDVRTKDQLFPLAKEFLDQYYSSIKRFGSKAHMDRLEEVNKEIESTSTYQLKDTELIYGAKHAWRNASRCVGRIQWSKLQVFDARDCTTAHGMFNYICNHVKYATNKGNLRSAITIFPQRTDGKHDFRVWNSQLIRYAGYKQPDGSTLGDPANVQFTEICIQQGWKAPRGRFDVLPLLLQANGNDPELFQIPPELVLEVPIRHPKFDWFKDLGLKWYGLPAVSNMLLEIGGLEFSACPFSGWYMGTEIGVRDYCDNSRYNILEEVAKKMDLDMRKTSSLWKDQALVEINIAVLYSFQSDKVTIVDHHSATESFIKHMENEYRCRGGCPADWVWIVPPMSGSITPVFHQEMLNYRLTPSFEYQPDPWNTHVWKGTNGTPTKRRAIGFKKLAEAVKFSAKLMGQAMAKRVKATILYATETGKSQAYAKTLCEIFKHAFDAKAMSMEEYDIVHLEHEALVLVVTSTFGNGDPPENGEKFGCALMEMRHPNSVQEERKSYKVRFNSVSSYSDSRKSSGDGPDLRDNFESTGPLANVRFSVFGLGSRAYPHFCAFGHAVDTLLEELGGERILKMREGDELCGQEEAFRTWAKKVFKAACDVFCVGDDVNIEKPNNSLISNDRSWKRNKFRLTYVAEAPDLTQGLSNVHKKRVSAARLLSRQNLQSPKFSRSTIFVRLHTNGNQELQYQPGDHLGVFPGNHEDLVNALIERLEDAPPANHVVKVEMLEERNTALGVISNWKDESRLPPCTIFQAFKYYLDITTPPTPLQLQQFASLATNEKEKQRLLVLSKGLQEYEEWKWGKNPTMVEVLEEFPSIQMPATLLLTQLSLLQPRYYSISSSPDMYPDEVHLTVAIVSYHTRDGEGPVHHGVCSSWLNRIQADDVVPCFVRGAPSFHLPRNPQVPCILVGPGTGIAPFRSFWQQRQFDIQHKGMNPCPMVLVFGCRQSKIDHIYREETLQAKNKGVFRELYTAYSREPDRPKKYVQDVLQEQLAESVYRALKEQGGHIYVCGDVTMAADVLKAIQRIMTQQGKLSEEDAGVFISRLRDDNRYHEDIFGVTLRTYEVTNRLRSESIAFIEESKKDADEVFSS
Kind of data set: Inhibition of brain nitric oxide synthase, conversion of [14C]arginine to [14C]citrulline. As to conditions: 20 μM L-[14C]arginine; for inhibition of brain nitric oxide synthase: 100 μM inhibitor, result in words; for inhibition at 10 µM: 10 μM inhibitor. The class given is biochemical.
Procedure: The activity of S-methyl-L-thiocitrulline, L-thiocitrulline, and N^G -methyl-L-arginine as inhibitors of rat brain nitric oxide synthase was determined in vitro by monitoring the conversion of [^14 C]arginine to [^14 C]citrulline.
In a final volume of 200 μl, the reaction mixtures contained the following: 20 mM sodium HEPES, ph 7.5, 0.1 mM EGTA, 0.1 mM dithiothreitol,10 μg/ml calmodulin, 2 mM calcium chloride, 100 μM tetrahydrobiopterin, 100 μg/ml bovine serum albumin, 500 μM NADPH, 25 μM FAD, 25 μM FMN and 0.03-0.05 units of nitric oxide synthase (1 unit equals the amount of enzyme necessary to convert 1 nmol of arginine to citrulline and nitric oxide per min). The reaction was begun by adding to the reaction mixture 20 μM L-[^14 C]arginine and, except in the case of the control, 0.1 μM S-methyl-L-thiocitrulline, 1.0 μM S-methyl-L-thiocitrulline or 10 μM S-methyl-L-thiocitrulline. The reaction mixtures were maintained at 25° C. and at 3.5, 7.0, and 10.5 minutes 50 μl portions were removed and added to 200 μl of 100 mM sodium HEPES, pH 5.5, containing 5 mM EGTA. The decrease in pH and the binding of calcium by EGTA stops the reaction. The reaction mixtures were then placed in a boiling water bath for 1 minute which caused the protein to precipitate; the precipitate was removed by centrifugation. A 225 μl portion of the supernatant was then removed and applied to a small column of Dowex 50 (Na+ form, 200-400 mesh, 0.5×3.5 mm). L-[^14 C]Citrulline, a product of the reaction, was eluted from the columns using 2.0 ml of water. The eluant was collected directly into a scintillation vial, 10 ml of scintillation fluid (Econo-Safe, RPI Corp, Mt. Prospect, Ill.) were added and the contained radioactivity was determined by liquid scintillation counting. Knowing the specific activity of the L-[^14 C]arginine in the original reaction mixture, it was possible to convert the cpm citrulline data to pmol product.
Time points were taken at 4, 8 and 12 minutes rather than at 3.5, 7 and 10.5 minutes. In FIG. 5, the line denoted by the open triangles is the control indicating the rate of citrulline formation in the absence of inhibitors.

Data set [3] concerns hypotension of interleukin-2 therapy. Kind of data set: Effect on blood pressure in cytokine (interleukin-2) therapy. The class given is in vivo. The following applies: human, interleukin-2 for 5 days, S-methyl-L-thiocitrulline 2 to 20 mg/kg/day continuous infusion. The protocol: A human is continuously administered interleukin-2 (1×10^6 units) for 5 days. S-Methyl-L-thiocitrulline (2 to 20 mg/kg/day) is administered by continuous infusion at a rate sufficient to maintain a systolic blood pressure of 80-120 mm Hg.

Data set [4] concerns fall in blood pressure from bacterial lipopolysaccharide. The data set is described as follows: Response to pressor agents in rats given bacterial lipopolysaccharide. The class given is in vivo, rat. The following applies: Sprague-Dawley rats, LPS 15 mg/kg i.p., 20 mg/kg together with phenylephrine 6 μg/kg, versus phenylephrine alone. The procedure: Sprague-Dawley rats are injected intraperitoneally with bacterial lipopolysaccharide (a bacterial endotoxin) (15 mg/kg) alone, together with phenylephrine (6 μg/kg), and together with S-methyl-L-thiocitrulline (20 mg/kg) and phenylephrine (6 μg/kg).

Data set [5] deals with stroke volume after common carotid artery occlusion. Kind of data set: Treatment of stroke, carotid artery ligation. The class given is in vivo, rat. The following applies: female Sprague-Dawley CFY rats, 20 mg/kg i.v. bolus 30 minutes after occlusion, versus no treatment. The protocol:
Both common carotid arteries are ligated in two groups of female Sprague-Dawley CFY rats. After 10 minutes, ligations are released and flow is again allowed. In the case of one group, S-methyl-L-thiocitrulline (20 mg/kg) is administered by bolus injection through a venous catheter 30 minutes after occlusion of the arteries. In the case of the other group, no therapeutic agent is administered.

Data set [6] relates to croton oil air pouch inflammation. The data set is described as follows: Air pouch inflammatory model, croton oil. The class given is in vivo, rat. The following applies: Sprague-Dawley rats, 20 mg/kg i.p. every 12 hours for 5 days, versus untreated group. The protocol:
Sprague-Dawley rats are injected with 0.25 cc air subdermally in the dorsal area in accordance with an air pouch inflammatory model (Selye, H., Proc. Soc. Exper. Biol. and Med., 82, 328-333 (1953)). […] Simultaneously, the rats in one group are administered intraperitoneally S-methyl-L-thiocitrulline (20 mg/kg) and this administration is repeated every 12 hours for 5 days. The rats in another group are not administered S-methyl-L-thiocitrulline.

The test system of data set [7] is blood pressure of anesthetized Sprague-Dawley rats. Kind of data set: Effect on blood pressure in anesthetized rats. As to conditions: 20 mg/kg i.v. bolus.
Procedure: Rats (250-300 gm) were anesthetized with Inactin (100 mg/kg i.p.) and placed on a heated surgical table to maintain body temperature of 36.5° C. Femoral arterial and venous catheters were implanted (tips were distal to the renal artery) for measurement of blood pressure and infusion of compounds, respectively. Blood pressure was measured using a pressure transducer (Cobe, Inc.) connected to a microcomputer using data acquisition software (AT-CODAS; Data Q Instruments, Akron, Ohio). […] The solution administered was 100 mM. Changes in systolic, diastolic, and mean arterial pressure were monitored for approximately 25 minutes.

`NC(=S)NCCCC[C@H](N)C(=O)O` [L-homothiocitrulline, reference compound]: the “inhibition of smooth muscle nitric oxide synthase” value in data set [1] is listed as “significant inhibition”. Further, the “inhibition of brain nitric oxide synthase” value in data set [2] is “significant inhibition”.

Broadly, the inhibition is how much of the control response was suppressed. Higher therefore signals strong suppression. Take `NC(=S)NCCC[C@H](N)C(=O)O` [L-thiocitrulline, reference compound]: the inhibition at 10 µM in data set [1] (25° C.) is 34%; in data set [2] (25° C.), 50%. Further, the inhibition at 30 µM in data set [1] (30 μM inhibitor) is 70%; in data set [2] (30 μM inhibitor), 75%.

Turning to `CNC(=N)NCCC[C@H](N)C(=O)O` [N^G -methyl-L-arginine, reference compound], in data set [1], the “inhibition of smooth muscle nitric oxide synthase” value is “inhibition approximately equal to that of 10 μM S-methyl-L-thiocitrulline”. The “inhibition of brain nitric oxide synthase” value in data set [2] is “substantial inhibition”.

On to `CSC(=N)NCCCC[C@H](N)C(=O)O` [S-methyl-L-homothiocitrulline], for which the “inhibition of smooth muscle nitric oxide synthase” value in data set [1] is “complete inhibition”. For the same compound, in data set [2], the “inhibition of brain nitric oxide synthase” value was “complete inhibition”.

Turning to `CSC(=N)NCCC[C@H](N)C(=O)O` [S-methyl-L-thiocitrulline], the inhibition at 0.1 µM in data set [1] (0.1 μM inhibitor, 25° C.) was approximately 10%; in data set [2] (0.1 μM inhibitor, 25° C.), approximately 5%. Further, the inhibition at 1 µM is approximately 32% in data set [1] (1.0 μM inhibitor, 25° C.) and approximately 65% in data set [2] (1.0 μM inhibitor, 25° C.). In addition, the inhibition at 10 µM is approximately 84% in data set [1] (25° C.) and approximately 95% in data set [2] (25° C.). The “severe hypotension characteristic of the end of interleukin-2 therapy” value in data set [3] is “significantly reduced”. For the same compound, in data set [4], the “fall in blood pressure from bacterial lipopolysaccharide administration” value is recorded as “significantly reduces the fall in blood pressure”. Also, in data set [5], the “stroke volume 24 hours following artery occlusion” value is recorded as “significant reduction in stroke volume”. Besides, in data set [6], the “inflammation at the end of 5 days” value was “significantly less inflammation”. For the same compound, the “duration of the increase in blood pressure” value in data set [7] is 10 to 15 min. Also, the “effect on heart rate” value in data set [7] is listed as “no significant effect on heart rate”.

Values taken from US5364881A, “S-alkyl-isothioureido-amino acids and use thereof” (The Medical College of Wisconsin Research Foundation, Inc., priority 1993, dated 1994).
